This is an account of results in publication PMC10399118, “Detection of endogenous NPY release determined by novel GRAB sensor in cultured cortical neurons” (Frontiers in Cellular Neuroscience, 2023).

By pEC50 is commonly meant −log10 of the EC50, conventionally taken in molar units.

The subject of assay [1] is cultured cortical neurons. Put plainly: sRGECO calcium sensor imaging of neuronal activity in cultured cortical neurons. Format: cell-based, mouse. Here is the method:
Cortex was isolated from postnatal day 1–2 (P1-P2) mice (C57Bl/6, Charles River, Germany), and the meninges were removed in ice-cold dissection media containing 10% 10xHBSS (Gibco, Scotland, #14065056), 1% P/S, 1% sodium pyruvate (Gibco, Scotland, #11360070), 1% 1M HEPES (Gibco, Scotland), and 1.2% 45% glucose (Sigma-Aldrich, Germany). […]
Neurons were continuously perfused with artificial cerebrospinal fluid (aCSF) [120 mM NaCl, 5 mM KCl, 2 mM CaCl2, 2 mM MgCl2, 25 mM HEPES, and 30 mM D-glucose] at pH 7.4 and 32°C for all live imaging experiments. […] The collected images were recorded either at a frame rate of 1 frame/second when recording GRAB NPY1.0 alone or 4 frames/second when the sRGECO signal was also recorded. […]
(§1) Epifluorescence imaging was conducted under constant slow perfusion of aCSF buffers at a flow rate of approximately 1 ml/min. To induce neuronal activity, bicuculline (Bic; 50 μM; 14340, Sigma-Aldrich, Germany; dissolved in DMSO) and 4-aminopyridine (4-AP; 250 μM; 275875, Sigma-Aldrich, Germany; dissolved in Milli-Q water) was added together with aCSF, which was carefully measured after adding the compounds to confirm a pH of 7.4. […]

In assay [2] the test system is GRAB NPY1.0 sensor. Put plainly: GRAB NPY1.0 sensor live-cell fluorescence imaging in cultured cortical neurons. Format: cell-based, mouse. Here is the method: Cortex was isolated from postnatal day 1–2 (P1-P2) mice (C57Bl/6, Charles River, Germany), and the meninges were removed in ice-cold dissection media containing 10% 10xHBSS (Gibco, Scotland, #14065056), 1% P/S, 1% sodium pyruvate (Gibco, Scotland, #11360070), 1% 1M HEPES (Gibco, Scotland), and 1.2% 45% glucose (Sigma-Aldrich, Germany). The cortices were cut into smaller pieces and incubated for 20–30 min at 37°C in papain solution containing 20 units/mL papain (Worthington Biochemical, #LS003126), 1mM L-cysteine (Sigma-Aldrich, Germany, #C7352), 1.9 mM CaCl2 (Sigma-Aldrich, Germany), 0.5 mM Kynurenic acid (Sigma-Aldrich, Germany, #K3375), pH adjusted to 7.4 with HCl and oxygenated with 95% O2 and 5% CO2. After incubation, the tissue was washed 3 times with Neurobasal A media and carefully triturated 3–5 times with a glass Pasteur pipette with a fire-polished tip. The dissociated cortical neurons were plated at a density of 100,000 or 150,000 cells/well onto the glia monolayered 18- or 25-mm coverslips, respectively, and grown in Neurobasal A media containing 1% Glutamax, 2% B-27, and 0.1% P/S. The day after seeding the neurons, half of the media was changed to remove any cell debris. Every 3–4 days, 1/4 of the media in the wells was removed and replaced with double of the removed volume of fresh neuronal media. The use of experimental animals was conducted in concordance with the Danish Research Ethical Committee for Experimental Animals (ethical permit #2017-15-0202-00092; PI: Andreas Toft Sørensen).
The following AAV vectors were used for experiments: GRAB NPY1.0 sensor (AAV2/9-hSyn-GRAB_NPY1.0; 6E+12−4.7E+13 vg/ml, 1 μL/well); sRGECO calcium sensor (AAV2/8-Ef1a-sRGECO-WPRE; Addgene plasmid #137125; RRID:Addgene_137125; 2.2E+13 vg/ml, 0.2 μL/well) ([Fenno et al., 2020]); NPY1-36 vector (AAV2/8-hSyn-PreproNPY-WPREpA; full-length peptide incl. CPON; produced in-house; 7.8E+12 vg/ml, 0.5 μL/well) ([Soud et al., 2019]). Primary cultures were transduced after 2–3 DIV and given […] to assure robust expression before being used for live-cell imaging.
Neurons were continuously perfused with artificial cerebrospinal fluid (aCSF) [120 mM NaCl, 5 mM KCl, 2 mM CaCl2, 2 mM MgCl2, 25 mM HEPES, and 30 mM D-glucose] at pH 7.4 and 32°C for all live imaging experiments. An RC-21BDW microscope flow chamber (Warner Instruments, Hamden, CT, USA) was used to hold the coverslips and to apply a flow of different aCSF and drug buffers during imaging at 20× with a Nikon Eclipse Ti microscope connected to two EM-CCD cameras (iXon3 897, Andor). A NIS-Elements software (Nikon, Tokyo, Japan) was used for recordings. GRAB NPY1.0 and sRGECO biosensors were excited with 488 nm and 561 nm laser lines (LED sapphire laser; Coherent Inc., Santa Clara, CA, USA), respectively. For the 488 nm LED laser excitation, a 491 nm mirror, and a 475/35 nm band-pass filter were used, while a 525/50 nm band-pass filter (AHF Analysentechnik, Tübingen-Pfrondorf, Germany) was used to detect emitted light. For the 561 nm LED laser excitation, a 561 nm mirror, and a 560/40 nm band-pass filter were used, while a 630/75 nm band-pass filter (AHF Analysentechnik, Tübingen-Pfrondorf, Germany) was used to detect emitted light. The collected images were recorded either at a frame rate of 1 frame/second when recording GRAB NPY1.0 alone or 4 frames/second when the sRGECO signal was also recorded. All recordings were performed using epifluorescence microscopy.
as §1

For assay [3], the system named is GRAB NPY1.0 sensor. The conditions noted are these: ref Wang et al., 2022, read-out: EC50 of GRAB NPY1.0 sensor response, cited from earlier work. The text has this: Here, we report on the usage of the GRAB NPY1.0 sensor in mouse-cultured cortical neurons and address the question: can the sensor detect the release of endogenous NPY? This sensor, recently developed in the Yulong Li laboratory, Peking University of China, is one of six neuropeptide-based GRAB sensors engineered for detecting either SST, CCK, CRF, NTS, VIP or NPY ([Wang et al., 2022]). While it was shown that the SST, CCK, and CRF sensors can detect endogenously released neuropeptides ([Wang et al., 2022]), similar information is lacking on the NPY1.0 sensor. In our setup, we tested the NPY1. ...

Setting [4] is: transgene NPY cultures, BIBO3304 applied during Bic + 4-AP.

pEC50: −log10 of the molar value. Like-named read-outs stand apart in the source and are kept apart here.

Take `NC(=O)NCc1ccc(CNC(=O)[C@@H](CCCN=C(N)N)NC(=O)C(c2ccccc2)c2ccccc2)cc1` [BIBO3304]: in assay [1] (BIBO3304 applied to the cultures), the “effect on high-frequency activity induced by Bic + 4-AP (sRGECO signal)” value was “not per se affected”. The “change of GRAB NPY1.0 fluorescence signal at baseline conditions” value in assay [2] (BIBO3304 1 μM applied at baseline, n = 90 neurons from 2 coverslips) is “remained unchanged”. Moreover, the “change of GRAB NPY1.0 fluorescence when added during Bic + 4-AP” value in assay [2] (NPY transgene (AAV-NPY) cortical cultures, BIBO3304 1 μM added to Bic 50 μM + 4-AP 250 μM, n = 128 neurons from 6 coverslips) is reported as “significant drop in fluorescence”. Further, in assay [2] (setting [4]), the “effect on GRAB NPY1.0 signal of cluster A during Bic + 4-AP” value was “not affected”; the “effect on GRAB NPY1.0 signal of clusters B and C during Bic + 4-AP” value is “significantly reduced”.

On to Neuropeptide Y [NPY], for which, in assay [1] (exogenous NPY added to primary cultures during Bic + 4-AP), the “change of sRGECO fluorescent signal (neuronal activity) during continuous Bic + 4-AP perfusion” value is on record as “marked decrease”. For the same compound, the “neurons expressing the GRAB NPY1.0 sensor that remained unresponsive” value in assay [2] (1 μM exogenous NPY, naive mouse cortical cultures, 174 neurons from 9 coverslips) was 8 out of 174. Also, the pEC50 in assay [2] (mouse cultured cortical neurons expressing GRAB NPY1.0, exogenous NPY1-36 0.3, 1, 30, 1000 nM in aCSF with 1% BSA, pH 7.4, 32°C, mean ΔF/F0, three-parameter fit, n = 130 neurons from 5 coverslips, read-out: EC50 of GRAB NPY1.0 fluorescence response (normalized dose-response curve)) is 7.42; in assay [3] (HEK293T cells stably expressing the NPY1.0 sensor), 7.40; in assay [3] (rat cortical neurons transduced by a similar AAV9 vector with human synapsin promoter), 9.15.
